Publication PMC5271319, “Identification and Characterization of a 25 kDa Protein That Is Indispensable for the Efficient Saccharification of Eisenia bicyclis in the Digestive Fluid of Aplysia kurodai” (PLoS ONE, 2017)

Target: T1, EHEP (Eisenia hydrolysis enhancing protein, 25 kDa) (Aplysia kurodai, UniProt A0A1B4XTR1)
T1 construct: native protein purified from digestive fluid; signal peptide 1-16 predicted to be removed; 25 kDa monomer
T1 sequence (A0A1B4XTR1 17-229): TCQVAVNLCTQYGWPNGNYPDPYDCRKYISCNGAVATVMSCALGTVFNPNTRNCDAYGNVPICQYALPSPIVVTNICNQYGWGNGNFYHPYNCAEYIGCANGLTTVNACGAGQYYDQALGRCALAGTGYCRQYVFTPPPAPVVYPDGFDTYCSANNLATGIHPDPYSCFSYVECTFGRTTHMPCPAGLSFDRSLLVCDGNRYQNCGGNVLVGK
Test: co-precipitation, SDS-PAGE of precipitate
Format: binding
Conditions: 50 and 100 μg in 0.1 ml; 50 mM acetate pH 5.5, 0.1 M NaCl, 10 mM CaCl2; 25 °C, 90 min

Row | Structure (SMILES) | co-precipitation, SDS-PAGE of precipitate
1 | O=C(O)c1cc(O)c(O)c(O)c1 [gallic acid] | EHEP was precipitated by phloroglucinol and gallic acid
2 | Oc1cc(O)cc(O)c1 [phloroglucinol, 1,3,5-trihydroxybenzene] | EHEP was precipitated by phloroglucinol and gallic acid
